US7696203B2, “DNA-PK inhibitors” (Kudos Pharmaceuticals Limited, priority 2005, dated 2010)
Like-named read-outs stand apart in the source and are kept apart here.

Tests used:
[1] = target: Mammalian DNA-PK (Homo sapiens, UniProt P78527); assay: DNA-PK inhibition assay (ELISA of p53 Ser15 phosphorylation of GST-p53N66); assay type: biochemical, human (isolated from HeLa cell nuclear extract)
Procedure: In order to assess the inhibitory action of the compounds against DNA-PK in vitro, the following assay was used to determine IC50 values.
To the assay mix, varying concentrations of inhibitor (in DMSO at a final concentration of 1%) were added. After 10 minutes of incubation, ATP was added to give a final concentration of 50 μM along with a 30 mer double stranded DNA oligonucleotide (final concentration of 0.5 ng/ml) to initiate the reaction. After 1 hour with shaking, 150 μl of phosphate buffered saline (PBS) was added to the reaction and 5 μl then transferred to a 96 well opaque white plate containing 45 μl of PBS per well where the GSTp53N66 substrate was allowed to bind to the wells for 1 hour. To detect the phosphorylation event on the serine 15 residue of p53 elicited by DNA-PK a p53 phosphoserine-15 antibody (Cell Signaling Technology) was used in a basic ELISA procedure. An anti-rabbit HRP conjugated secondary antibody (Pierce) was then employed in the ELISA before the addition of chemiluminescence reagent (NEN Renaissance) to detect the signal as measured by chemiluminescent counting via a TopCount NXT (Packard).
The enzyme activity for each compound is then calculated using the following equation: […]
These are determined over a range of different concentrations, normally from 10 μM down to 0.001 μM. Such IC50 values are used as comparative values to identify increased compound potencies.

[2] = test system: cells; details: ionising radiation, literature; cited from earlier work
[3] = test system: HeLa cells; assay: Survival Enhancement Ratio (clonogenic survival after 2 Gray irradiation); assay type: cell-based, human; details: inhibitor at 100 nM
Procedure: Survival Enhancement Ratio
The Survival Enhancement Ratio (SER) is a ratio of the enhancement of cell kill elicited by the DNA-PK inhibitor after 2 Grays of irradiation compared to unirradiated control cells. […] Radiation was delivered by a Faxitron 43855D machine at a dose rate of 1 Gy pre minute The SER at 2 Gray irradiation was calculated from the formula:
The degree of cell killing was monitored by a standard clonogenic survival assay. Briefly, tissue culture treated 6-well plates were seeded with HeLa cells at an appropriate concentration to give 100-200 colonies per well and returned to the incubator in order to allow the cells to attach. Four hours later, compound or vehicle control was added to the cells. The cells were then incubated for 1 hour in the presence of inhibitor prior to irradiation at 2 Gray using a Faxitron 43855D cabinet X-ray machine. The cells were then incubated for a further 16 hours before the media was replaced with fresh media in the absence of DNA-PK inhibitor. After 8 days, colonies formed were fixed and stained with Giemsa (Sigma, Poole, UK) and scored using an automated colony counter (Oxford Optronics Ltd, Oxford, UK). The data was calculated as described above.

[4] = DNA-PK from HeLa nuclear extract, 50 μM ATP, 30° C., read-out: IC50 (concentration at which 50% of the enzyme activity is inhibited), DNA-PK inhibition

IC50 [1, 4]	Compound	other results
< 100 nM	Nc1ccc(-c2cccn3c(=O)cc(N4CCOCC4)nc23)c2sc3ccccc3c12 [Compound 23, 9-(1-Amino-dibenzothiophen-4-yl)-2-morpholin-4-yl-pyrido[2,1-a]pyrimidin-4-one]	–
< 100 nM	Nc1ccc(-c2cccc3c(=O)cc(N4CCOCC4)[nH]c23)c2sc3ccccc3c12 [Compound 25, 8-(1-amino-dibenzothiophen-4-yl)-2-morpholin-4-yl-1H-quinolin-4-one]	–
–	O=c1cc(N2CCOCC2)[nH]c2c(-c3ccc([N+](=O)[O-])c4c3oc3ccccc34)cccc12 [Compound 28, 2-Morpholin-4-yl-8-(1-nitro-dibenzofuran-4-yl)-1H-quinolin-4-one]	melting point: 247 °C
< 100 nM	O=c1cc(N2CCOCC2)nc2c(-c3ccc(O)c4c3sc3ccccc34)cccn12 [Compound 31, 9-(1-Hydroxy-dibenzothiophen-4-yl)-2-morpholin-4-yl-pyrido[2,1-a]pyrimidin-4-one]	–
–	O=c1cc(N2CCOCC2)nc2c(-c3cccc4c3oc3ccccc34)cccn12 [Compound 34b]	IC50 [1]: < 100 nM
< 100 nM	O=C(CN1CCOCC1)Nc1ccc(-c2cccc3c(=O)cc(N4CCOCC4)[nH]c23)c2sc3ccccc3c12 [Compound 38b]	–
< 100 nM	COCCN1CCN(CC(=O)Nc2ccc(-c3cccc4c(=O)cc(N5CCOCC5)[nH]c34)c3oc4ccccc4c23)CC1 [Compound 42b]	–
< 100 nM	C[C@@H]1CN(CC(=O)Nc2ccc(-c3cccc4c(=O)cc(N5CCOCC5)[nH]c34)c3oc4ccccc4c23)C[C@H](C)O1 [Compound 42d]	–
< 100 nM	O=C(CN1CCN(CCO)CC1)Nc1ccc(-c2cccc3c(=O)cc(N4CCOCC4)[nH]c23)c2oc3ccccc3c12 [Compound 42f]	–
< 100 nM	C[C@@H]1CN(CCC(=O)Nc2ccc(-c3cccc4c(=O)cc(N5CCOCC5)oc34)c3oc4ccccc4c23)C[C@H](C)O1 [Compound 45a]	–
< 100 nM	O=C(CCN1CCOCC1)Nc1ccc(-c2cccc3c(=O)cc(N4CCOCC4)oc23)c2oc3ccccc3c12 [Compound 45c]	–
–	O=c1cc(N2CCOCC2)oc2c(-c3ccccc3)cccc12 [LY294002]	sensitisation of cells to the effects of IR [2]: weakly sensitise cells
–	O=c1cc(N2CCOCC2)oc2c(-c3cccc4c3sc3ccccc34)cccc12 [reference compound]	IC50 [1]: 10 to 12 nM; SER (Survival Enhancement Ratio) [3]: 1.3
